Measured values as given in patent US20210323913A1, “SIGMA RECEPTOR BINDERS” (BOARD OF REGENTS, THE UNIVERSITY OF TEXAS SYSTEM, priority 2016, published 2021).
Read-outs that look alike come from different tables or passages of the source.

Columns and labels:
sigma 2 receptor = sigma 2 receptor (Homo sapiens, UniProt Q5BJF2); experiment: Sigma 2 receptor radioligand competition binding; conditions: for Ki ratio Sig1R/Sig2R: ratio of Sig1R Ki to Sig2R Ki
sigma 1 receptor = sigma 1 receptor (Homo sapiens, UniProt Q99720); experiment: Sigma 1 receptor radioligand competition binding
H1 = H1 (Homo sapiens, UniProt P35367); experiment: Radioligand competition binding, H1; conditions: Table 5; Cheng-Prusoff from best fit IC50
[1] = Table 1, 7-piperazinyl-tetrahydronaphthalene analogs, read-out: Ki (nM) Sig2R
[2] = Table 1, 7-piperazinyl-tetrahydronaphthalene analogs, read-out: Ki (nM) Sig1R
[3] = Table 2, piperazinyl-tetrahydronaphthalene analogs, read-out: Ki (nM) Sig2R
[4] = Table 2, piperazinyl-tetrahydronaphthalene analogs, read-out: Ki (nM) Sig1R

Chain of sigma 2 receptor (Q5BJF2 whole entry, species assumed): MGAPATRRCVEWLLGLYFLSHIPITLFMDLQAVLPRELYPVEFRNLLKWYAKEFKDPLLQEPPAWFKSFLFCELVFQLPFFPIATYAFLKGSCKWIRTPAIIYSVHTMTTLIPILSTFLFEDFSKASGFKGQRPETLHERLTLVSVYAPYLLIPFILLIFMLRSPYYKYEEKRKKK
Chain of sigma 1 receptor (Q99720 whole entry, species assumed): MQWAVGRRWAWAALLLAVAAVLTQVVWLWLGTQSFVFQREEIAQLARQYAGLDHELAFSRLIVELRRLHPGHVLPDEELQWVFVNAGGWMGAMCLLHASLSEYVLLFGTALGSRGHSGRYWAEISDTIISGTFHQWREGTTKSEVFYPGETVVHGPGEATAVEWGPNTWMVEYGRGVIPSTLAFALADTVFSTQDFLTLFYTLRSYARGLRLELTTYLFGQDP
Chain of H1 (P35367 whole entry): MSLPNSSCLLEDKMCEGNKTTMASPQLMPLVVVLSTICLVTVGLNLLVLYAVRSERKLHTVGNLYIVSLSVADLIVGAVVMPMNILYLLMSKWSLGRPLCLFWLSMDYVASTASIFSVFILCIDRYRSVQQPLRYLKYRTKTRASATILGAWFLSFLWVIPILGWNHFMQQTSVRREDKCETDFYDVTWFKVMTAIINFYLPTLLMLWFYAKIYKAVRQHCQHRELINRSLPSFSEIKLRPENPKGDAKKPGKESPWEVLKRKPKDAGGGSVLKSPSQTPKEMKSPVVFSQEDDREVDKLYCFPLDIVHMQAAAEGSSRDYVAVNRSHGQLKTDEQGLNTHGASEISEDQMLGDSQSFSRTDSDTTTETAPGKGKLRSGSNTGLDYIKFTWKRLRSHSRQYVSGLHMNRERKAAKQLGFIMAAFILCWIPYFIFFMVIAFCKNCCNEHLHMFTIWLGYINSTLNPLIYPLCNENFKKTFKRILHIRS

Row | SMILES | Ki (sigma 2 receptor; [1]) [nM] | Ki ratio Sig1R/Sig2R (sigma 2 receptor; Table 1) | Ki (sigma 1 receptor; [2]) [nM] | also measured
1 | CN(Cc1ccccc1)C1CCCc2cc(N3CCOCC3)ccc21 (centres unmarked) [MDW-1-129, N-Benzyl-N-methyl-6-morpholino-1,2,3,4-tetrahydronaphthalen-1-amine] | – | – | – | Ki (sigma 2 receptor; Table 5, Cheng-Prusoff from best fit IC50, read-out: Ki Sigma 2): 1170 nM; Ki (sigma 1 receptor; Table 5, Cheng-Prusoff from best fit IC50, read-out: Ki Sigma 1): 223 nM; Ki (H1): 118 nM
2 | CCOC(=O)CCN1CCN(c2ccc3c(c2)C(N(CC)C(=O)OCc2ccccc2)CCC3)CC1 (centres unmarked) [MDW-1-190, Ethyl 3-(4-(8-(((benzyloxy)carbonyl)(ethyl)amino)-5,6,7,8-tetrahydronaphthalen-2-yl)piperazin-1-yl)propanoate] | 20 | 166 | 3320 | –
3 | CN(C(=O)OCc1ccccc1)C1CCCc2ccc(N3CCN(C4CCC4)CC3)cc21 (centres unmarked) [MDW-1-162, Benzyl (7-(4-cyclobutylpiperazin-1-yl)-1,2,3,4-tetrahydronaphthalen-1-yl)(methyl)carbamate] | 12 | 22 | 266 | –
4 | CCOC(=O)CCN1CCN(c2ccc3c(c2)CCCC3N(C)C(=O)OCc2ccccc2)CC1 (centres unmarked) [MDW-1-207, Ethyl 3-(4-(5-(((benzyloxy)carbonyl)(methyl)amino)-5,6,7,8-tetrahydronaphthalen-2-yl)piperazin-1-yl)propanoate] | – | – | – | Ki (sigma 2 receptor; [3]): 91 nM; Ki ratio Sig1R/Sig2R (sigma 2 receptor; Table 2): 7; Ki (sigma 1 receptor; [4]): 647 nM
5 | CN(C(=O)OCc1ccccc1)C1CCCc2ccc(N3CCN(C4CCCCC4)CC3)cc21 (centres unmarked) [MDW-1-205, Benzyl (7-(4-cyclohexylpiperazin-1-yl)-1,2,3,4-tetrahydronaphthalen-1-yl)(methyl)carbamate] | 2 | 8 | 16 | –
6 | CCOC(=O)CCN1CCN(c2cccc3c2CCCC3N(C)C(=O)OCc2ccccc2)CC1 (centres unmarked) [MDW-1-214, Ethyl 3-(4-(5-(((benzyloxy)carbonyl)(methyl)amino)-5,6,7,8-tetrahydronaphthalen-1-yl)piperazin-1-yl)propanoate] | – | – | – | Ki (sigma 2 receptor; [3]): 34 nM; Ki ratio Sig1R/Sig2R (sigma 2 receptor; Table 2): 9; Ki (sigma 1 receptor; [4]): 303 nM
7 | CCCN1CCN(c2cccc3c2CCCC3N(C)C(=O)OCc2ccccc2)CC1 (centres unmarked) [MDW-1-215, Benzyl methyl(5-(4-propylpiperazin-1-yl)-1,2,3,4-tetrahydronaphthalen-1-yl)carbamate] | – | – | – | Ki (sigma 2 receptor; [3]): 26 nM; Ki ratio Sig1R/Sig2R (sigma 2 receptor; Table 2): 0.5; Ki (sigma 1 receptor; [4]): 12 nM
8 | CCCN1CCN(c2ccc3c(c2)CCCC3N(C)C(=O)OCc2ccccc2)CC1 (centres unmarked) [MDW-1-204, Benzyl methyl(6-(4-propylpiperazin-1-yl)-1,2,3,4-tetrahydronaphthalen-1-yl)carbamate] | – | – | – | Ki (sigma 2 receptor; [3]): 13 nM; Ki ratio Sig1R/Sig2R (sigma 2 receptor; Table 2): 3; Ki (sigma 1 receptor; [4]): 40 nM
9 | CCOC(=O)CCN1CCN(c2ccc3c(c2)C(NC(=O)OCc2ccccc2)CCC3)CC1 (centres unmarked) [MDW-1-206, Ethyl 3-(4-(8-(((benzyloxy)carbonyl)amino)-5,6,7,8-tetrahydronaphthalen-2-yl)piperazin-1-yl)propanoate] | 80 | 28 | 2260 | –
10 | CCCN1CCN(c2ccc3c(c2)C(OC(=O)CCc2ccccc2)CCC3)CC1 (centres unmarked) [MDW-1-290, 7-(4-Propylpiperazin-1-yl)-1,2,3,4-tetrahydronaphthalen-1-yl 3-phenylpropanoate] | 25 | 1 | 33 | –
11 | CC(C)N1CCN(c2ccc3c(c2)C(N(C)C(=O)OCc2ccccc2)CCC3)CC1 (centres unmarked) [MDW-1-167, Benzyl (7-(4-isopropylpiperazin-1-yl)-1,2,3,4-tetrahydronaphthalen-1-yl)(methyl)carbamate] | 8 | 27 | 223 | –
12 | CCN1CCN(c2ccc3c(c2)C(N(C)C(=O)OCc2ccccc2)CCC3)CC1 (centres unmarked) [MDW-1-161, Benzyl (7-(4-ethylpiperazin-1-yl)-1,2,3,4-tetrahydronaphthalen-1-yl)(methyl)carbamate] | 35 | 25 | 887 | –

Second part, led by results:

Row | Ki (sigma 2 receptor; [1]) [nM] | Ki ratio Sig1R/Sig2R (sigma 2 receptor; Table 1) | Ki (sigma 1 receptor; [2]) [nM] | SMILES | also measured
13 | 5 | 70 | 321 | CCCN1CCN(c2ccc3c(c2)C(N(CC)C(=O)OCc2ccccc2)CCC3)CC1 (centres unmarked) [MDW-1-195, Benzyl ethyl(7-(4-propylpiperazin-1-yl)-1,2,3,4-tetrahydronaphthalen-1-yl)carbamate] | –
14 | 56 | 3 | 174 | CCCN1CCN(c2ccc3c(c2)C(NC(=O)OCc2ccccc2)CCC3)CC1 (centres unmarked) [MDW-1-202, Benzyl (7-(4-propylpiperazin-1-yl)-1,2,3,4-tetrahydronaphthalen-1-yl)carbamate] | –
15 | 284 | 10 | 2940 | CN1CCN(c2ccc3c(c2)C(N(C)C(=O)OCc2ccccc2)CCC3)CC1 (centres unmarked) [MDW-1-93, Benzyl methyl(7-(4-methylpiperazin-1-yl)-1,2,3,4-tetrahydronaphthalen-1-yl)carbamate] | –
16 | 894 | – | > 10000 | CCOC(=O)CN1CCN(c2ccc3c(c2)C(N(C)C(=O)OCc2ccccc2)CCC3)CC1 (centres unmarked) [MDW-1-169, Ethyl 2-(4-(8-(((benzyloxy)carbonyl)(methyl)amino)-5,6,7,8-tetrahydronaphthalen-2-yl)piperazin-1-yl)acetate] | –
17 | 43 | 67 | 2860 | COC(=O)CCN1CCN(c2ccc3c(c2)C(N(C)C(=O)OCc2ccccc2)CCC3)CC1 (centres unmarked) [MDW-1-166, Methyl 3-(4-(8-(((benzyloxy)carbonyl)(methyl)amino)-5,6,7,8-tetrahydronaphthalen-2-yl)piperazin-1-yl)propanoate] | –
